From patent US20220332701A1, “HETEROCYCLIC COMPOUNDS AS BCR-ABL INHIBITORS” (ASCENTAGE PHARMA (SUZHOU) CO., LTD., priority 2019, published 2022)

Key:
BaF3(WT) = BaF3(WT) (Homo sapiens, UniProt P00519); experiment: WST (CCK-8) anti-proliferation assay, BaF3 WT cells; conditions: read-out: BaF3(WT); anti-proliferative IC50, 72 h treatment, CCK-8, BaF3 WT
Protocol: (§1) The anti-proliferative effect of representative Compounds of the Disclosure was determined by a water-soluble tetrazolium (WST)-based assay using Cell Counting Kit-8 (CCK-8). Cells were seeded in 96-well plates and treated with different concentrations of test articles for 72 h. Each treatment was tested in triplicates. Briefly, a series of 9 concentrations were chosen for each test article and added at 100 μl/well into a 96-well plate. Each concentration was tested in triplicates. 100 μl of diluent was added into 3-6 wells in the same plate for cell control group, and another set of 3-6 wells was used as a blank control.
(§2) In each well, 100 μl of cell suspension (containing optimal cell numbers, which creates approximately 100% confluence of cells in control wells based on by the absorbance (OD) value) was dispensed into the same 96-well plate except for the blank well. The plate was then cultured at 37° C. in an incubator in an atmosphere with 5% CO2 for 72 h. At the end of treatments, 20 μl/well of CCK-8 reagent was directly added to each wells. The plate was then incubated at 37° C. in an incubator in an atmosphere with 5% CO2 for 2-4 hour.
(§3) The cells viability was calculated using the mean OD value of triplicated wells following the equation below: (OD sample−OD blank)/(OD cell control−OD blank)×100 IC50 values were calculated with Graphpad Prism 6.0 software using nonlinear regression (curve fitting) type data analysis.

BaF3(T315I) = BaF3(T315I) (Homo sapiens, UniProt P00519, T315I, cells depend on it); experiment: WST (CCK-8) anti-proliferation assay, BaF3 T315I cells; conditions: read-out: BaF3(T315I); anti-proliferative IC50, 72 h treatment, CCK-8, BaF3 T315I
Protocol: as §1, §2, §3

SMILES	GI50 (BaF3(WT)) [nM]	GI50 (BaF3(T315I)) [nM]
CCC1c2cc(C(=O)Nc3ccc(OC(F)(F)Cl)cc3)cc(-c3ccn[nH]3)c2N(C(C)C)C1CNC (centres unmarked) [VII-24, N-(4-(chlorodifluoromethoxy)phenyl)-3-ethyl-1-isopropyl-2-((methylamino)methyl)-7-(1H-pyrazol-5-yl)indoline-5-carboxamide]	1690	3860
COCCN(CCOC)C(=O)C1Cc2cc(C(=O)Nc3ccc(OC(F)(F)Cl)cc3)cc(-c3ccn[nH]3)c2N1C(C)C (centres unmarked) [VII-30, N^5-(4-(chlorodifluoromethoxy)phenyl)-1-isopropyl-N2,N2-bis(2-methoxyethyl)-7-(1H-pyrazol-5-yl)indoline-2,5-dicarboxamide]	16	94
O=C(Nc1ccc(OC(F)(F)Cl)cc1)c1cc2c(c(-c3ccn[nH]3)c1)C1(CCCC1)C(=O)N2 [V-3, N-(4-(chlorodifluoromethoxy)phenyl)-2′-oxo-4′-(1H-pyrazol-5-yl)spiro[cyclopentane-1,3′-indoline]-6′-carboxamide]	22	136
O=C(Nc1ccc(OC(F)(F)Cl)cc1)c1cc2c(c(-c3ccn[nH]3)c1)N(CCO)CC2 [VII-6, N-(4-(chlorodifluoromethoxy)phenyl)-1-(2-hydroxyethyl)-7-(1H-pyrazol-5-yl) indoline-5-carboxamide]	112	250
CC(C)N1c2c(cc(C(=O)Nc3ccc(OC(F)(F)Cl)cc3)cc2-c2ccn[nH]2)CC1CN(C)C (centres unmarked) [VII-13, N-(4-(chlorodifluoromethoxy)phenyl)-2-((dimethylamino)methyl)-1-isopropyl-7-(1H-pyrazol-5-yl)indoline-5-carboxamide]	266	1410
CC1CN(C)c2c(-c3ccn[nH]3)cc(C(=O)Nc3ccc(OC(F)(F)Cl)cc3)cc21 (centres unmarked) [VII-39, N-(4-(chlorodifluoromethoxy)phenyl)-1,3-dimethyl-7-(1H-pyrazol-5-yl)indoline-5-carboxamide]	62	1050
Cc1ccc(-c2cc(C(=O)Nc3ccc(OC(F)(F)Cl)cc3)cc3c2C(C)(C)N(C)C3=O)o1 [IV-2, N-(4-(chlorodifluoromethoxy)phenyl)-1,1,2-trimethyl-7-(5-methylfuran-2-yl)-3-oxoisoindoline-5-carboxamide]	399	3340
CC(C)n1cc(CO)c2cc(C(=O)Nc3ccc(OC(F)(F)Cl)cc3)cc(-c3ccn[nH]3)c21 [XII-8, N-(4-(chlorodifluoromethoxy)phenyl)-3-(hydroxymethyl)-1-isopropyl-7-(1H-pyrazol-5-yl)-1H-indole-5-carboxamide]	57	344
CC(C)n1ccc2cc(C(=O)Nc3ccc(OC(F)(F)Cl)cc3)cc(-c3ccn[nH]3)c21 [XII-1, N-(4-(chlorodifluoromethoxy)phenyl)-1-isopropyl-7-(1H-pyrazol-5-yl)-1H-indole-5-carboxamide]	115	654
O=C(Nc1ccc(OC(F)(F)Cl)cc1)c1cc2c(c(-c3ccn[nH]3)c1)N(C1CC1)CC2 [VII-5, N-(4-(chlorodifluoromethoxy)phenyl)-1-cyclopropyl-7-(1H-pyrazol-5-yl) indoline-5-carboxamide]	34	295
CC(C)N1CC(C)(C)c2cc(C(=O)Nc3ccc(OC(F)(F)Cl)cc3)cc(-c3ccn[nH]3)c21 [VII-40, N-(4-(chlorodifluoromethoxy)phenyl)-1-isopropyl-3,3-dimethyl-7-(1H-pyrazol-5-yl)indoline-5-carboxamide]	20	256
CC(C)N1c2c(cc(C(=O)Nc3ccc(OC(F)(F)Cl)cc3)cc2-c2ccn[nH]2)CC1C(=O)N1CCS(=O)(=O)CC1 (centres unmarked) [VII-31, N-(4-(chlorodifluoromethoxy)phenyl)-2-(1,1-dioxidothiomorpholine-4-carbonyl)-1-isopropyl-7-(1H-pyrazol-5-yl)indoline-5-carboxamide]	78	423
CC1(C)C(=O)N(CCO)c2cc(C(=O)Nc3ccc(OC(F)(F)Cl)cc3)cc(-c3ccn[nH]3)c21 [V-6, N-(4-(chlorodifluoromethoxy)phenyl)-1-(2-hydroxyethyl)-3,3-dimethyl-2-oxo-4-(1H-pyrazol-5-yl)indoline-6-carboxamide]	364	2860
CC(C)N1C(=O)C(C)(C)c2cc(C(=O)Nc3ccc(OC(F)(F)Cl)cc3)cc(-c3cncnc3)c21 [VIII-2, N-(4-(chlorodifluoromethoxy)phenyl)-1-isopropyl-3,3-dimethyl-2-oxo-7-(pyrimidin-5-yl)indoline-5-carboxamide]	359	1990
CC1CN(C(C)C)c2cc(C(=O)Nc3ccc(OC(F)(F)Cl)cc3)cc(-c3ccn[nH]3)c21 (centres unmarked) [III-1, N-(4-(chlorodifluoromethoxy)phenyl)-1-isopropyl-3-methyl-4-(1H-pyrazol-5-yl)indoline-6-carboxamide]	119	3250
CC(C)N1c2c(cc(C(=O)Nc3ccc(OC(F)(F)Cl)cc3)cc2-c2ccn[nH]2)CC1C(=O)N1CCOCC1 (centres unmarked) [VII-25, N-(4-(chlorodifluoromethoxy)phenyl)-1-isopropyl-2-(morpholine-4-carbonyl)-7-(1H-pyrazol-5-yl)indoline-5-carboxamide]	58	243
CC(C)n1cc(CO)c2cc(C(=O)Nc3ccc(OC(F)(F)Cl)cc3)cc(-c3cncnc3)c21 [XII-7, N-(4-(chlorodifluoromethoxy)phenyl)-3-(hydroxymethyl)-1-isopropyl-7-(pyrimidin-5-yl)-1H-indole-5-carboxamide]	82	552
CNC(=O)C1Cc2cc(C(=O)Nc3ccc(OC(F)(F)Cl)cc3)cc(-c3cncnc3)c2N1C(C)C (centres unmarked) [VII-16, N5-(4-(chlorodifluoromethoxy)phenyl)-1-isopropyl-N2-methyl-7-(pyrimidin-5-yl)indoline-2,5-dicarboxamide]	28	278
CN1C(=O)c2cc(C(=O)Nc3ccc(OC(F)(F)Cl)cc3)cc(-c3ccn[nH]3)c2C1(C)C [IV-1, N-(4-(chlorodifluoromethoxy)phenyl)-1,1,2-trimethyl-3-oxo-7-(1H-pyrazol-5-yl)isoindoline-5-carboxamide]	24	244
CC(C)N1CC(C)(C)Oc2cc(C(=O)Nc3ccc(OC(F)(F)Cl)cc3)cc(-c3ccn[nH]3)c21 [IX-5, N-(4-(chlorodifluoromethoxy)phenyl)-4-isopropyl-2,2-dimethyl-5-(1H-pyrazol-5-yl)-3,4-dihydro-2H-benzo[b][1,4]oxazine-7-carboxamide]	17	333
CN1CCc2cc(C(=O)Nc3ccc(OC(F)(F)Cl)cc3)cc(-c3ccn[nH]3)c21 [VII-7, N-(4-(chlorodifluoromethoxy)phenyl)-1-methyl-7-(1H-pyrazol-5-yl)indoline-5-carboxamide]	113	144
CC(C)n1cc(Cl)c2cc(C(=O)Nc3ccc(OC(F)(F)Cl)cc3)cc(-c3cncnc3)c21 [XII-4, 3-chloro-N-(4-(chlorodifluoromethoxy)phenyl)-1-isopropyl-7-(pyrimidin-5-yl)-1H-indole-5-carboxamide]	128	726
CC1CN(C(C)C)c2c(-c3ccn[nH]3)cc(C(=O)Nc3ccc(OC(F)(F)Cl)cc3)cc21 (centres unmarked) [VII-38, N-(4-(chlorodifluoromethoxy)phenyl)-1-isopropyl-3-methyl-7-(1H-pyrazol-5-yl)indoline-5-carboxamide]	20	223
CC(C)N1CCc2cc(C(=O)Nc3ccc(SC(F)(F)F)cc3)cc(-c3ccn[nH]3)c21 [VII-45, 1-isopropyl-7-(1H-pyrazol-5-yl)-N-(4-((trifluoromethyl)thio)phenyl)indoline-5-carboxamide]	18	474
CC(C)N1CCc2cc(C(=O)Nc3ccc(OC(F)(F)Cl)cc3)cc(-c3cncnc3)c21 [VII-4, N-(4-(chlorodifluoromethoxy)phenyl)-1-isopropyl-7-(pyrimidin-5-yl)indoline-5-carboxamide]	42	136
CC(C)N1c2c(cc(C(=O)Nc3ccc(OC(F)(F)Cl)cc3)cc2-c2cncnc2)CC1C(=O)N(C)C (centres unmarked) [VII-15, N5-(4-(chlorodifluoromethoxy)phenyl)-1-isopropyl-N2,N2-dimethyl-7-(pyrimidin-5-yl)indoline-2,5-dicarboxamide]	19	131
CC(C)N1c2c(cc(C(=O)Nc3ccc(OC(F)(F)Cl)cc3)cc2-c2ccn[nH]2)CC1C(=O)N1CCN(C)CC1 (centres unmarked) [VII-33, N-(4-(chlorodifluoromethoxy)phenyl)-1-isopropyl-2-(4-methylpiperazine-1-carbonyl)-7-(1H-pyrazol-5-yl)indoline-5-carboxamide]	49	163
CC1CN(C(C)C)c2c(cc(C(=O)Nc3ccc(OC(F)(F)Cl)cc3)cc2-c2ccn[nH]2)O1 (centres unmarked) [IX-4, N-(4-(chlorodifluoromethoxy)phenyl)-4-isopropyl-2-methyl-5-(1H-pyrazol-5-yl)-3,4-dihydro-2H-benzo[b][1,4]oxazine-7-carboxamide]	33	3110
CN1CC(C)(C)c2c(-c3ccn[nH]3)cc(C(=O)Nc3ccc(OC(F)(F)Cl)cc3)cc21 [III-2, N-(4-(chlorodifluoromethoxy)phenyl)-1,3,3-trimethyl-4-(1H-pyrazol-5-yl)indoline-6-carboxamide]	78	2060
CN1CCC2(C1)C(=O)Nc1cc(C(=O)Nc3ccc(OC(F)(F)Cl)cc3)cc(-c3cc[nH]n3)c12 (centres unmarked) [V-8, N-(4-(chlorodifluoromethoxy)phenyl)-1′-methyl-2-oxo-4-(1H-pyrazol-3-yl)spiro[indoline-3,3′-pyrrolidine]-6-carboxamide]	1550	–
